From ChEMBL document CHEMBL1157806, “1-(3-Deoxy-3-fluoro-beta-d-glucopyranosyl) pyrimidine derivatives as inhibitors of glycogen phosphorylase b: Kinetic, crystallographic and modelling studies” (Bioorg Med Chem, 2010)

What was measured:
[1] = Dissociation constant, pKa of the compound; type: physicochemical
[2] = target: T1, Glycogen phosphorylase, muscle form (Oryctolagus cuniculus, UniProt P00489); assay: Inhibition of rabbit muscle glycogen phosphorylase inactive form b
T1 sequence (P00489 whole entry): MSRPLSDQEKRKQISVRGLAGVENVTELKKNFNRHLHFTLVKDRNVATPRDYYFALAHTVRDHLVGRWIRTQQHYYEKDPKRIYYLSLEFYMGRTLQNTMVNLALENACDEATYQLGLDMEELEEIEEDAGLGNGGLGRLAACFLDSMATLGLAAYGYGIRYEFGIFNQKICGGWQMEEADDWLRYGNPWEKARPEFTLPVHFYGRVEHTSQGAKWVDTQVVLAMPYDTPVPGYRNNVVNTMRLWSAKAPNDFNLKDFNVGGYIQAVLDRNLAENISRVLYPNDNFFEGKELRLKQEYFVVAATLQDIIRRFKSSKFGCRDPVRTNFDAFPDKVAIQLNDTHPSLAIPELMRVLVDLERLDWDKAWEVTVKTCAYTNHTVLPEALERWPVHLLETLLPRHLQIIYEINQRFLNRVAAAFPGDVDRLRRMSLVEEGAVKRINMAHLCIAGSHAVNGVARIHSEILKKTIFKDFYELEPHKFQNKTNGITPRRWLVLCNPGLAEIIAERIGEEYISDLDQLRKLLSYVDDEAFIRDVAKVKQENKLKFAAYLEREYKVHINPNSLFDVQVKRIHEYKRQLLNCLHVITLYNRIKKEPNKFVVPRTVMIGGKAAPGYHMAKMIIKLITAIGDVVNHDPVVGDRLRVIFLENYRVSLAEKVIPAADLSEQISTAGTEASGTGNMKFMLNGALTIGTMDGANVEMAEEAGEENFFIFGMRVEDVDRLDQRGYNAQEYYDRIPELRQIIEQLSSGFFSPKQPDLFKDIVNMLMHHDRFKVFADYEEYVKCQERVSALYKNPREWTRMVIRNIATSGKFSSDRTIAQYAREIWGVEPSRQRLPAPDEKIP

SMILES: O=c1[nH]c(=O)n([C@@H]2O[C@H](CO)C(O)[C@H](F)C2O)cc1F (stereo partly drawn)
- pKa [1]: 7.5

SMILES: O=c1ccn([C@@H]2O[C@H](CO)[C@@H](O)[C@H](O)[C@H]2O)c(=O)[nH]1
- Ki [2]: 6.1 µM

SMILES: Nc1ccn([C@@H]2O[C@H](CO)[C@@H](O)[C@H](O)[C@H]2O)c(=O)n1
- Ki [2]: 7.7 µM
